Experimental data: ChEMBL document CHEMBL5052830, “Foxm1 inhibitor compositions and methods of using the same” (2021)
The source made the active and inactive calls. The rule behind the calls is not given here.

What was measured:
DT-22 [1] = assay: Antitumor activity in human DT-22 cells xenografted NSG mouse assessed as reduction in total FOXM1 expression at 5 to 10 mg/kg, sc administered daily until day 21 and then every other day; format: functional, organism-based; conditions: dose 5-10 mg/kg
DT-22 [2] = assay: Antitumor activity in human DT-22 cells xenografted NSG mouse assessed as reduction in tumor growth at 40 mg/kg, sc administered daily for 4 days followed by 20 mg/kg every third day until day 13 and followed by 10 mg/kg every third day; format: functional, organism-based; conditions: time 4.0 day
DT-22 [3] = assay: Antitumor activity in human DT-22 cells xenografted NSG mouse assessed as reduction in FOXM1B expression at 5 to 10 mg/kg, sc administered daily until day 21 and then every other day; format: functional, organism-based; conditions: dose 5-10 mg/kg
MCF-7/TAMR-1 = assay: Antiproliferative activity against human MCF-7/TAMR-1 cells measured by WST-1 assay; format: functional, cell-based
DT-22 [4] = assay: Antitumor activity in human DT-22 cells xenografted NSG mouse assessed as reduction in tumor growth at 5 to 10 mg/kg, sc administered daily until day 21 and then every other day; format: functional, organism-based; conditions: dose 5-10 mg/kg
DT-22 [5] = assay: Antitumor activity in human DT-22 cells xenografted NSG mouse assessed as reduction in CENPF expression at 5 to 10 mg/kg, sc administered daily until day 21 and then every other day; format: functional, organism-based; conditions: dose 5-10 mg/kg
DT-22 [6] = assay: Antitumor activity in human DT-22 cells xenografted NSG mouse assessed as reduction in FOXM1C expression at 5 to 10 mg/kg, sc administered daily until day 21 and then every other day; format: functional, organism-based; conditions: dose 5-10 mg/kg
[7] = Half-life in female CD-1 mouse at 40 mg/kg, sc administered as single dose and measured by LC-MS/MS analysis; format: ADME, organism-based; conditions: in vivo
[8] = Toxicity in human DT-22-Luc cells xenografted female NSG mouse assessed as as effect on body weight at 20 mg/kg, sc administered daily until day 20 and followed by 10 mg/kg every other day; format: organism-based; conditions: in vivo
DT-22 [9] = assay: Antitumor activity in human DT-22-Luc cells xenografted female NSG mouse assessed as reduction in tumor growth at 20 mg/kg, sc administered daily until day 20 and followed by 10 mg/kg every other day; format: functional, organism-based
[10] = Half-life in female CD-1 mouse at 60 mg/kg, sc administered as single dose and measured by LC-MS/MS analysis; format: ADME, organism-based; conditions: in vivo
[11] = target: T1, Forkhead box protein M1 (Homo sapiens) (UniProt Q08050); assay: Inhibition of FOXM1 in human ER-negative DT-22 cells at 5 uM assessed as reduction in FOXM1C expression measured by qRT-PCR method; format: cell-based
T1 sequence (whole entry): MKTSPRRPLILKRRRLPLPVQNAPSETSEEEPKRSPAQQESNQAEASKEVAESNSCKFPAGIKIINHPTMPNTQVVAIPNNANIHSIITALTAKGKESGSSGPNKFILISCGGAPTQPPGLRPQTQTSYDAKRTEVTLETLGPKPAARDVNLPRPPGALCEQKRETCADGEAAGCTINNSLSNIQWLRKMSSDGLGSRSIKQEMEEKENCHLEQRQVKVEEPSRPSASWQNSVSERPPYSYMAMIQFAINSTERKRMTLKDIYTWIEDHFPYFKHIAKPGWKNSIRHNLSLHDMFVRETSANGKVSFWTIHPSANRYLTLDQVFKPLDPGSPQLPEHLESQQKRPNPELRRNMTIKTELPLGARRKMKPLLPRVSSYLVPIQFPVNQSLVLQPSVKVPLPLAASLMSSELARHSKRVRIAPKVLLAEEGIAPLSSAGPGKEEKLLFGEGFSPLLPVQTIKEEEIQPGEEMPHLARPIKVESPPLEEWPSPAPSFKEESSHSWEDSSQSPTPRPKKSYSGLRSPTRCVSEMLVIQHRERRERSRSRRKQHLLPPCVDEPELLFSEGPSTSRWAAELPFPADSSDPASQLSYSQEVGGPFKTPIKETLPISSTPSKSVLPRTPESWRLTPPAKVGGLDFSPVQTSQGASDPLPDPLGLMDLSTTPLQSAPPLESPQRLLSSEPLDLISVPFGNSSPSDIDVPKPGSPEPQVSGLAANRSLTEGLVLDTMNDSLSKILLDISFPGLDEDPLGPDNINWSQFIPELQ

[12] = target: T1, Forkhead box protein M1 (Homo sapiens); assay: Inhibition of FOXM1 in human ER-positive MCF7 cells at 5 uM assessed as reduction in PLK1 expression measured by qRT-PCR method; format: cell-based
[13] = target: T1, Forkhead box protein M1 (Homo sapiens); assay: Inhibition of FOXM1 in human ER-negative DT-22 cells at 5 uM assessed as reduction in CCNB1 expression measured by qRT-PCR method; format: cell-based
DT-22 [14] = assay: Antitumor activity in human DT-22 cells xenografted NSG mouse assessed as reduction in tumor growth at 100 mg/kg, po administered daily for 7 days; format: functional, organism-based; conditions: time 7.0 day
[15] = target: T1, Forkhead box protein M1 (Homo sapiens); assay: Inhibition of FOXM1 in human ER-positive MCF7 cells at 5 uM assessed as reduction in CCNB1 expression measured by qRT-PCR method; format: cell-based
[16] = target: T1, Forkhead box protein M1 (Homo sapiens); assay: Inhibition of FOXM1 in human ER-positive MCF7 cells at 5 uM assessed as reduction in FOXM1C expression measured by qRT-PCR method; format: cell-based
[17] = target: T1, Forkhead box protein M1 (Homo sapiens); assay: Inhibition of FOXM1 in human ER-negative DT-22 cells at 5 uM assessed as increase in ATF3 expression measured by qRT-PCR method; format: cell-based
[18] = target: T1, Forkhead box protein M1 (Homo sapiens); assay: Inhibition of FOXM1 in human ER-positive MCF7 cells at 5 uM assessed as reduction in AURKB expression measured by qRT-PCR method; format: cell-based
[19] = target: T1, Forkhead box protein M1 (Homo sapiens); assay: Inhibition of FOXM1 in human ER-negative DT-22 cells at 5 uM assessed as reduction in AURKB expression measured by qRT-PCR method; format: cell-based
MCF7 = assay: Antitumor activity in human MCF7 cells xenografted ovariectomized NSG mouse assessed as reduction in tumor growth at 100 mg/kg, sc administered daily; format: functional, organism-based
[20] = target: T1, Forkhead box protein M1 (Homo sapiens); assay: Inhibition of FOXM1 in human ER-positive MCF7 cells at 5 uM assessed as increase in ATF3 expression measured by qRT-PCR method; format: cell-based
[21] = target: T1, Forkhead box protein M1 (Homo sapiens); assay: Inhibition of FOXM1 in human ER-negative DT-22 cells at 5 uM assessed as reduction in PLK1 expression measured by qRT-PCR method; format: cell-based
[22] = AUC (0 to 48 hrs) in female CD-1 mouse at 40 mg/kg, sc administered as single dose and measured by LC-MS/MS analysis; format: ADME, organism-based; parameters: time < 48 hr, route subcutaneous, dose 40 mg/kg; conditions: in vivo
[23] = target: T1, Forkhead box protein M1 (Homo sapiens); assay: Inhibition of FOXM1 in human ER-negative DT-22 cells at 8 uM assessed as increase in ATF3 expression measured by qRT-PCR method; format: cell-based
[24] = target: T1, Forkhead box protein M1 (Homo sapiens); assay: Inhibition of FOXM1 in human ER-negative DT-22 cells at 8 uM assessed as reduction in CCNB1 expression measured by qRT-PCR method; format: cell-based
[25] = target: T1, Forkhead box protein M1 (Homo sapiens); assay: Inhibition of FOXM1 in human ER-positive MCF7 cells at 8 uM assessed as increase in ATF3 expression measured by qRT-PCR method; format: cell-based
[26] = AUC in mouse at 20 mg/kg, sc measured by LC-MS/MS analysis; format: ADME, organism-based; parameters: dose 20 mg/kg; conditions: in vivo
[27] = Half-life in mouse at 20 mg/kg, sc measured by LC-MS/MS analysis; format: ADME, organism-based; conditions: in vivo
[28] = target: T1, Forkhead box protein M1 (Homo sapiens); assay: Inhibition of FOXM1 in human ER-positive MCF7 cells at 8 uM assessed as reduction in CCNB1 expression measured by qRT-PCR method; format: cell-based
[29] = target: T1, Forkhead box protein M1 (Homo sapiens); assay: Inhibition of FOXM1 in human ER-positive MCF7 cells at 8 uM assessed as reduction in PLK1 expression measured by qRT-PCR method; format: cell-based
[30] = target: T1, Forkhead box protein M1 (Homo sapiens); assay: Inhibition of FOXM1 in human ER-negative DT-22 cells at 8 uM assessed as reduction in AURKB expression measured by qRT-PCR method; format: cell-based
[31] = target: T1, Forkhead box protein M1 (Homo sapiens); assay: Inhibition of FOXM1 in human ER-positive MCF7 cells at 8 uM assessed as reduction in AURKB expression measured by qRT-PCR method; format: cell-based
[32] = target: T1, Forkhead box protein M1 (Homo sapiens); assay: Inhibition of FOXM1 in human ER-negative DT-22 cells at 8 uM assessed as reduction in PLK1 expression measured by qRT-PCR method; format: cell-based
[33] = target: T1, Forkhead box protein M1 (Homo sapiens); assay: Inhibition of FOXM1 in human ER-negative DT-22 cells at 8 uM assessed as reduction in FOXM1C expression measured by qRT-PCR method; format: cell-based
[34] = Cmax in mouse at 20 mg/kg, sc measured by LC-MS/MS analysis; format: ADME, organism-based; parameters: route subcutaneous, dose 20 mg/kg; conditions: in vivo
[35] = target: T1, Forkhead box protein M1 (Homo sapiens); assay: Inhibition of FOXM1 in human ER-positive MCF7 cells at 8 uM assessed as reduction in FOXM1C expression measured by qRT-PCR method; format: cell-based
DT-22 [36] = assay: Antitumor activity in human DT-22-Luc cells xenografted female NSG mouse assessed as reduction in tumor growth at 2 to 6 mg/kg, sc; format: functional, organism-based; conditions: dose 2-6 mg/kg
[37] = Toxicity in human DT-22-Luc cells xenografted female NSG mouse assessed as as effect on body weight at 2 to 6 mg/kg, sc; format: organism-based; conditions: in vivo, dose 2-6 mg/kg
[38] = Half-life in female CD-1 mouse at 20 mg/kg, po administered as single dose and measured by LC-MS/MS analysis; format: ADME, organism-based; conditions: in vivo

C[N+]1(CCCCCCOc2ccc(C(c3ccc(OCCCCCC[N+]4(C)CCCCCC4)cc3)=C3C4C[C@H]5C[C@@H](C4)C[C@H]3C5)cc2)CCCCCC1
Activity (DT-22 [1]): Active | Activity (DT-22 [2]): Active | Activity (DT-22 [3]): Active | Activity (MCF-7/TAMR-1): Active | Activity (DT-22 [4]): Active | Activity (DT-22 [5]): Active | Activity (DT-22 [6]): Active

C[N+]1(CCCCCCOc2ccc(C(c3ccc(OCCCCCC[N+]4(C)CCCCC4)cc3)=C3C4C[C@H]5C[C@@H](C4)C[C@H]3C5)cc2)CCCCC1
Activity (DT-22 [2]): Active

C[N+]1(CCCCCCOc2ccc(C(c3ccc(Cl)cc3)=C3C4C[C@H]5C[C@@H](C4)C[C@H]3C5)cc2)CCCC1.[I-]
half-life [7]: 31.5 h | Activity [8]: Non-Toxic | Activity (DT-22 [9]): Active

CN1CCN(CCCCCCOc2ccc(C(=C3C4CC5CC(C4)CC3C5)c3ccc(OCCCCCCN4CCN(C)CC4)cc3)cc2)CC1
half-life [10]: 45.6 h

C[N+]1(CCCCCCOc2ccc(C(=C3C4CC5CC(C4)CC3C5)c3ccc(OCCCCCC[N+]4(C)CCCC4)cc3)cc2)CCCC1
Activity (DT-22 [2]): Active

Clc1ccc(C(=C2C3CC4CC(C3)CC2C4)c2ccc(OCCCCCCN3CCCC3)cc2)cc1
inhibition [11]: Active | inhibition [12]: Active | inhibition [13]: Active | Activity (DT-22 [14]): Active | inhibition [15]: Active | inhibition [16]: Active | inhibition [17]: Active | inhibition [18]: Active | inhibition [19]: Active | half-life [7]: 26.7 h | Activity (MCF7): Active | inhibition [20]: Active | inhibition [21]: Active

C[n+]1ccn(CCCCCCOc2ccc(C(=C3C4CC5CC(C4)CC3C5)c3ccc(Cl)cc3)cc2)c1.[I-]
half-life [7]: 36.8 h | AUC(0-t) at 48 h [22]: 150 µM·h

Nc1c(C(=O)Nc2ccc(F)cc2)sc2nc(-c3cccs3)cc(C(F)(F)F)c12
inhibition [23]: Active | inhibition [24]: Active | inhibition [25]: Active | AUC [26]: 1.2 µM·h | half-life [27]: 21.8 h | inhibition [28]: Active | inhibition [29]: Active | inhibition [30]: Active | inhibition [31]: Active | inhibition [32]: Active | inhibition [33]: Active | Cmax [34]: 40 nM | inhibition [35]: Active

CC[N+](C)(CC)CCCCCCOc1ccc(C(c2ccc(OCCCCCC[N+](C)(CC)CC)cc2)=C2C3C[C@H]4C[C@@H](C3)C[C@H]2C4)cc1.[I-].[I-]
Activity (DT-22 [36]): Active | Activity [37]: Non-Toxic | half-life [7]: 38.6 h

CCN(CC)CCCCCCOc1ccc(C(c2ccc(OCCCCCCN(CC)CC)cc2)=C2[C@H]3C[C@@H]4C[C@@H](C[C@H]2C4)C3)cc1
half-life [38]: 61.8 h
